Assays:
[1] = test system: STAT1 (phosphorylated at Tyr701) in NCI-H1373 cells; test: Phospho-STAT1 (Tyr701) LANCE Ultra TR-FRET Detection Assay; format: cell-based; settings: Homo sapiens, 48 hours, induction of pSTAT1, normalized to 10 uM positive control and DMSO, 4-parameter fit, read-out: NH1373 pSTAT1 EC50
Description: Phospho-STAT1 (Tyr701 LANCE Ultra TR-FRET Detection Assay
LANCE Ultra phospho-STAT1 (Tyr701) kits available from Perkin Elmer are designed for the detection of phosphorylated STAT1 in cell lysates using a simple, homogeneous LANCE Ultra sandwich assay (Cat. #TRF4028M). This assay is intended for assessing compound induction of endogenous levels of cellular STAT1 (phosphorylated at Tyr701) in NCI-H1373 cells. The NCI-H1373 cells are cultured in RPMI 1640 media containing 10% heat inactivated FBS, GlutaMAX, 1% Penicillin-Streptomycin. An Echo acoustic liquid handler is used to transfer 60 nanoliters of compound dilutions using the Echo Qualified, 384-well polypropylene microplate clear flat bottom source plates into a Greiner (#781080) cell culture microplate. NCI-H1373 cells are seeded into these compound-spotted culture plates at 30,000 cells/well in a 60 uL volume in growth media. The plates are incubated in a 5% CO2 humidified incubator at 37° C. for 48 hours. […] Briefly, 20 μL of supplemented lysis buffer is added to each well and allowed to shake for 1 hour at 400 rpm. Next, 5 ul of remixed antibody solutions (vol/vol) prepared in detection buffer are added to each well and allowed to incubate at room temperature overnight. After spinning the plate down at 300 rpm for […], the plate is read on an EnVision plate reader set up for Eu3+ Cryptate and fluorescence emission is measured at two different wavelengths (665 nm and 620 nm).

PARP7 = biological target: T1, PARP7 (Homo sapiens, UniProt Q7Z3E1); test: biochemical;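 further: MSD light signal quantifying PARP7 captured by a plate-immobilized probe, read after 1.5 h equilibration plus 1.5 h with SULFO-TAG anti-GST antibody at room temperature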
T1 sequence (Q7Z3E1 1-657): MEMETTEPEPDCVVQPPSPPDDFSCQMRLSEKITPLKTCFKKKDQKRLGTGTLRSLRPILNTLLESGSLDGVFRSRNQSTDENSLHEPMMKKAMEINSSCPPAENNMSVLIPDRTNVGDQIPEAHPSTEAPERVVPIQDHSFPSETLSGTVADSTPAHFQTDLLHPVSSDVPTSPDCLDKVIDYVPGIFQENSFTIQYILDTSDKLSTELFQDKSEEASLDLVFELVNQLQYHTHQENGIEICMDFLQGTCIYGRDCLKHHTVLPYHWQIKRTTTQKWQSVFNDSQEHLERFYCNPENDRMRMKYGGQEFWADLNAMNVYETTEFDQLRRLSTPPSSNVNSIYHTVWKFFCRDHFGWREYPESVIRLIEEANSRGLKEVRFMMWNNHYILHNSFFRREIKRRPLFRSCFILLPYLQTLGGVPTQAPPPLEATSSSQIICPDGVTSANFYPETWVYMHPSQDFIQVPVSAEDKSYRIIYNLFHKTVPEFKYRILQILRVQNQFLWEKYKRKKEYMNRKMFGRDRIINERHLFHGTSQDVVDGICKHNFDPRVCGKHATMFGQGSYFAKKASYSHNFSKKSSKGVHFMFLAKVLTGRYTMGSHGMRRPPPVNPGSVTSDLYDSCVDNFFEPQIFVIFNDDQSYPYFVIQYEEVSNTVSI
Description: Probe Displacement Assay for PARP7 Displacement of a biotinylated probe (RBN011147; Wigle et al., Cell Chemical Biology, 2020, pp. 877-887) from the PARP7 NAD+-binding site was measured in vitro using a Mesoscale Discovery electrochemiluminescent assay. […] Next, 10 μl of 10 nM PARP7 protein incubated for 1 hour at room temperature with a dose response curve of each test compound in a Greiner LDV polypropylene plate (#781201) is added to the MSD plate containing the immobilized probe. The interaction is allowed to reach equilibrium for 1.5 hours, and then 10 ul of SULFO-TAG labeled anti-GST antibody (Cat #R32AA-1) is added to each well and allowed to incubate for an additional 1.5 hours at room temperature. Finally, 10 μl of MSD read buffer T (4×, Cat. #R92C-1) is added to each well using a Bravo liquid handler to prevent air bubbles in the wells, and the plates are subsequently read in an MSD instrument. Light intensity is then measured to quantify the amount of PARP7 bound to the immobilized probe on the plate.

| IC50 (PARP7) [nM] | Compound | EC50 [1] [nM] |
| --- | --- | --- |
| 0.233 | CN(CCCC(=O)N1CCN(c2ncc(C(F)(F)F)cn2)CC1)c1cc(C(F)(F)F)c(=O)[nH]n1 [Example 32, 6-(methyl(4-oxo-4-(4-(5-(trifluoromethyl)pyrimidin-2-yl)piperazin-1-yl)butyl)amino)-4-(trifluoromethyl)pyridazin-3(2H)-one] | 75.6 |
| 2.92 | O=C(CC[C@H]1CCCCN1c1cc(C(F)(F)F)c(=O)[nH]n1)N1CCN(c2ncc(C(F)(F)F)cn2)CC1 [Example 33, (R)-6-(2-(3-oxo-3-(4-(5-(trifluoromethyl)pyrimidin-2-yl)piperazin-1-yl)propyl)piperidin-1-yl)-4-(trifluoromethyl)pyridazin-3(2H)-one] | 1220 |
| 4.46 | O=C(C[C@H]1CCCCN1c1cc(C(F)(F)F)c(=O)[nH]n1)N1CCN(c2ncc(C(F)(F)F)cn2)CC1 [Example 34, (R)-6-(2-(2-oxo-2-(4-(5-(trifluoromethyl)pyrimidin-2-yl)piperazin-1-yl)ethyl)piperidin-1-yl)-4-(trifluoromethyl)pyridazin-3(2H)-one] | 1690 |
| 0.179 | CCN(CCCC(=O)N1CCN(c2ncc(C(F)(F)F)cn2)CC1)c1cc(C(F)(F)F)c(=O)[nH]n1 [Example 36, 6-(ethyl(4-oxo-4-(4-(5-(trifluoromethyl)pyrimidin-2-yl)piperazin-1-yl)butyl)amino)-4-(trifluoromethyl)pyridazin-3(2H)-one] | 51.6 |
| 0.28 | CCCN(CCCC(=O)N1CCN(c2ncc(C(F)(F)F)cn2)CC1)c1cc(C(F)(F)F)c(=O)[nH]n1 [Example 37, 6-((4-oxo-4-(4-(5-(trifluoromethyl)pyrimidin-2-yl)piperazin-1-yl)butyl)(propyl)amino)-4-(trifluoromethyl)pyridazin-3(2H)-one] | 134 |
| 2.71 | O=C(N1CCN(c2ncc(C(F)(F)F)cn2)CC1)N1CCC[C@@H](Nc2cc(C(F)(F)F)c(=O)[nH]n2)C1 [Example 38, (R)-4-(trifluoromethyl)-6-((1-(4-(5-(trifluoromethyl)pyrimidin-2-yl)piperazine-1-carbonyl)piperidin-3-yl)amino)pyridazin-3(2H)-one] | 1870 |
| 0.719 | O=C(N1CCN(c2ncc(C(F)(F)F)cn2)CC1)N1CCC[C@H](Nc2cc(C(F)(F)F)c(=O)[nH]n2)C1 [Example 39, (S)-4-(trifluoromethyl)-6-((1-(4-(5-(trifluoromethyl)pyrimidin-2-yl)piperazine-1-carbonyl)piperidin-3-yl)amino)pyridazin-3(2H)-one] | 1030 |
| 0.275 | O=C(CC[C@@H](Nc1cc(C(F)(F)F)c(=O)[nH]n1)C(F)F)N1CCN(c2ncc(C(F)(F)F)cn2)CC1 [Example 40, (R)-6-((1,1-difluoro-5-oxo-5-(4-(5-(trifluoromethyl)pyrimidin-2-yl)piperazin-1-yl)pentan-2-yl)amino)-4-(trifluoromethyl)pyridazin-3(2H)-one] | 63 |
| 0.598 | O=C(CC[C@@H]1COCCN1c1cc(C(F)(F)F)c(=O)[nH]n1)N1CCN(c2ncc(C(F)(F)F)cn2)CC1 [Example 42, (R)-6-(3-(3-oxo-3-(4-(5-(trifluoromethyl)pyrimidin-2-yl)piperazin-1-yl)propyl)morpholino)-4-(trifluoromethyl)pyridazin-3(2H)-one] | 901 |
| 20.1 | O=C([C@@H]1CN(c2cc(C(F)(F)F)c(=O)[nH]n2)CCO1)N1CCN(c2ncc(C(F)(F)F)cn2)CC1 [Example 43, (S)-4-(trifluoromethyl)-6-(2-(4-(5-(trifluoromethyl)pyrimidin-2-yl)piperazine-1-carbonyl)morpholino)pyridazin-3(2H)-one] | ≥ 10000 |
| 0.151 | O=C(CCCN(c1ccccc1)c1cc(C(F)(F)F)c(=O)[nH]n1)N1CCN(c2ncc(C(F)(F)F)cn2)CC1 [Example 44, 6-((4-oxo-4-(4-(5-(trifluoromethyl)pyrimidin-2-yl)piperazin-1-yl)butyl)(phenyl)amino)-4-(trifluoromethyl)pyridazin-3(2H)-one] | 74.1 |
| 0.232 | O=C(CCC1Cc2ccccc2N1c1cc(C(F)(F)F)c(=O)[nH]n1)N1CCN(c2ncc(C(F)(F)F)cn2)CC1 (centres unmarked) [Example 47, 3-[2-[3-oxo-3-[4-[5-(trifluoromethyl)pyrimidin-2-yl]piperazin-1-yl]propyl]indolin-1-yl]-5-(trifluoromethyl)-1H-pyridazin-6-one] | 179 |
| 1.1 | O=C([C@@H]1Cc2ccccc2N1c1cc(C(F)(F)F)c(=O)[nH]n1)N1CCN(c2ncc(C(F)(F)F)cn2)CC1 [Example 49, 5-(trifluoromethyl)-3-[(2S)-2-[4-[5-(trifluoromethyl)pyrimidin-2-yl]piperazine-1-carbonyl]indolin-1-yl]-1H-pyridazin-6-one] | 858 |
| 0.357 | O=C(CC[C@@H]1Cc2ccccc2N1c1cc(C(F)(F)F)c(=O)[nH]n1)N1CCN(c2ncc(C(F)(F)F)cn2)CC1 [Example 50, 3-[(2R)-2-[3-oxo-3-[4-[5-(trifluoromethyl)pyrimidin-2-yl]piperazin-1-yl]propyl]indolin-1-yl]-5-(trifluoromethyl)-1H-pyridazin-6-one] | 221 |
| 0.165 | [2H]C1([2H])N(C(=O)CCCNc2cc(C(F)(F)F)c(=O)[nH]n2)C([2H])([2H])C([2H])([2H])N(c2ncc(C(F)(F)F)cn2)C1([2H])[2H] [Example 51, 3-[[4-[2,2,3,3,5,5,6,6-octadeuterio-4-[5-(trifluoromethyl)pyrimidin-2-yl]piperazin-1-yl]-4-oxo-butyl]amino]-5-(trifluoromethyl)-1H-pyridazin-6-one] | 123 |
| 0.359 | [2H]C1([2H])N(C(=O)CCCCc2cc(C(F)(F)F)c(=O)[nH]n2)C([2H])([2H])C([2H])([2H])N(c2ncc(C(F)(F)F)cn2)C1([2H])[2H] [Example 52, 3-[5-[2,2,3,3,5,5,6,6-octadeuterio-4-[5-(trifluoromethyl)pyrimidin-2-yl]piperazin-1-yl]-5-oxo-pentyl]-5-(trifluoromethyl)-1H-pyridazin-6-one] | 209 |
| 0.34 | O=C(CCCNc1cc(C(F)(F)F)c(=O)[nH]n1)N1CCN(c2ccc(C(F)(F)F)cn2)CC1 [Example 53, 3-[[4-oxo-4-[4-[5-(trifluoromethyl)-2-pyridyl]piperazin-1-yl]butyl]amino]-5-(trifluoromethyl)-1H-pyridazin-6-one] | 218 |
| 0.408 | N#Cc1ccc(N2CCN(C(=O)CCCNc3cc(C(F)(F)F)c(=O)[nH]n3)CC2)nc1 [Example 54, 6-[4-[4-[[6-oxo-5-(trifluoromethyl)-1H-pyridazin-3-yl]amino]butanoyl]piperazin-1-yl]pyridine-3-carbonitrile] | 690 |
| 0.339 | O=C([C@@H]1CCN1c1cc(C(F)(F)F)c(=O)[nH]n1)N1CCN(c2ncc(C(F)(F)F)cn2)CC1 [Example 55, 5-(trifluoromethyl)-3-[(2S)-2-[4-[5-(trifluoromethyl)pyrimidin-2-yl]piperazine-1-carbonyl]azetidin-1-yl]-1H-pyridazin-6-one] | 282 |

— patent US20230183216A1, “PYRIDIZIN-3(2H)-ONE DERIVATIVES” (Gilead Sciences, Inc., priority 2021, published 2023)
